From patent US20190184069A1, “ANTIMICROBIAL COMPOSITIONS COMPRISING MINOCYCLINE AND DEGRADATION PRODUCTS OF OXIDIZED CELLULOSE” (Omrix Biopharmaceuticals Ltd., priority 2017, published 2019)
Several values for one entry are separate records, joined by “and”; a condition that tells them apart may be missing. Equal entries are not always repeated.

Tests used:
S. aureus [1] = test: Tertiary stage: antimicrobial activity (ET50/MIC) of extract of degradation products of antibiotic-impregnated ORC pads, single or combination; format: cell-based, Staphylococcus aureus; details: for Fold reduction in MIC concentration: primary MIC (antibiotic alone) versus antibiotic-impregnated ORC (tertiary) MIC; for MIC times higher than that of the primary stage MIC: antibiotic impregnated onto ORC pad
Protocol: Solutions comprising different concentrations of antibiotics to be tested were prepared in methanol.
Blank ORC pads of dimensions 1×1.5 inch, weighing between 65-75 mg (70 mg on average), in duplicate, were immersed in the antibiotic solutions and then dried using a rotary evaporator to provide extract of degradation products of antibiotic-impregnated ORC pads.
15 ml test tubes containing 3 ml of sterile PBS were prepared, and the antibiotic-impregnated ORC pads were immersed in the tubes and incubated for 3-5 hours at ambient temperature on a roller mixer (Stuart, Cat#SRT9D).
Each of the above extracts was filtered out using a sterile 0.8/0.2 μm syringe filter into a clean 15 ml tube. These extraction fluids are referred to herein as “extract of degradation products of antibiotic-impregnated ORC”.
Briefly, ORC pads weighing on average 70 mg each were impregnated with the selected antibiotic. Extracts of degradation products of antibiotic-impregnated ORC were prepared by immersion and incubation in 3 ml of sterile PBS for 3 hours at ambient temperature. The ORC degeneration products were then removed, and any remaining ORC particles were filtered out using a […] syringe filter. This extraction fluid was then diluted 10-fold into Muller Hinton growth medium containing bacteria. Bacterial growth was monitored every 20 min for a total of 18 hours according to optical density (OD) at 600 nm, using an ELISA reader.
Since the study included many possible combinations of two antibiotics, each with their own different concentration range, a matrix of possible antibiotic concentrations was designed, and degradation products of ORC were prepared accordingly (see Table 10). Since all the possible combinations could not be fitted into one 96 well plate, a series of MIC experiments were carried out.

S. aureus [2] = details: cited from earlier work

With CN(C)c1ccc(O)c2c1C[C@H]1C[C@H]3[C@H](N(C)C)C(O)=C(C(N)=O)C(=O)[C@@]3(O)C(O)=C1C2=O [Minocycline, minocycline] the “MIC fold lower in the presence of degradation products of ORC than in their absence” value (S. aureus [1]) was “at least 5.8 fold”, the “Fold reduction of the MIC for minocycline with at least one more antibiotic impregnated on ORC, versus minocycline alone” value (S. aureus [1]; combination with rifampin or clindamycin, with ORC degradation products) was 200 fold and the ET50 (S. aureus [1]; impregnated ORC extract, minocycline 1.26 ng/ml, clindamycin 0.00 ng/ml) was 637.6 min. It also gave an ET50 (S. aureus [1]; impregnated ORC extract, minocycline 1.26 ng/ml, rifampin 0.00 ng/ml) of 585.4 min, an ET50 (S. aureus [1]; impregnated ORC extract, minocycline 2.52 ng/ml, clindamycin 0.00 ng/ml) of 1072 min and an ET50 (S. aureus [1]; impregnated ORC extract, minocycline 2.52 ng/ml, rifampin 0.00 ng/ml) of 799.9 min. It also gave an ET50 (S. aureus [1]; impregnated ORC extract, minocycline 5.04 ng/ml, clindamycin 0.00 ng/ml) greater than 2000 min, an ET50 (S. aureus [1]; impregnated ORC extract, minocycline 5.04 ng/ml, rifampin 0.00 ng/ml) greater than 2000 min and an ET50 (S. aureus [1]; impregnated ORC extract, minocycline 6.30 ng/ml, clindamycin 0.00 ng/ml) greater than 2000 min. It also gave an ET50 (S. aureus [1]; impregnated ORC extract, minocycline 6.30 ng/ml, rifampin 0.00 ng/ml) greater than 2000 min, an ET50 (S. aureus [1]; minocycline-impregnated ORC extract, impregnation fluid 5 μg/ml, 0.00027 % on ORC, 6.30 ng/ml in MIC) of 1145 min and an ET50 (S. aureus [1]; minocycline-impregnated ORC extract, impregnation fluid 10 μg/ml, 0.00054 % on ORC, 12.60 ng/ml in MIC) of 2000 min. For the same molecule, the ET50 (S. aureus [1]; minocycline-impregnated ORC extract, impregnation fluid 20 μg/ml, 0.00108 % on ORC, 25.20 ng/ml in MIC) was greater than 2000 min, the ET50 (S. aureus [1]; minocycline-impregnated ORC extract, impregnation fluid 40 μg/ml, 0.00216 % on ORC, 50.40 ng/ml in MIC) was greater than 2000 min and the “Fold reduction in MIC concentration” value (S. aureus [1]) was 20 and 19.85.
With CO[C@H]1/C=C/O[C@@]2(C)Oc3c(C)c(O)c4c(O)c(c(/C=N/N5CCN(C)CC5)c(O)c4c3C2=O)NC(=O)/C(C)=C\C=C\[C@H](C)[C@H](O)[C@@H](C)[C@@H](O)[C@@H](C)[C@H](OC(C)=O)[C@@H]1C [Rifampin, rifampin] the “Change of antimicrobial activity when impregnated onto the ORC pad versus first stage MIC” value (S. aureus [1]) was “impaired”, the “MIC times higher than that of the primary stage MIC” value (S. aureus [1]) was 50 times and the “MIC times higher than that of the primary stage MIC” value (S. aureus [1]; listed as rifampin) was “about 50 times”. It also gave an ET50 (S. aureus [1]; impregnated ORC extract, minocycline 0.00 ng/ml, rifampin 73.29 ng/ml) of 406.8 min, an ET50 (S. aureus [1]; impregnated ORC extract, minocycline 0.00 ng/ml, rifampin 146.58 ng/ml) of 442.3 min and an ET50 (S. aureus [1]; impregnated ORC extract, minocycline 0.00 ng/ml, rifampin 293.16 ng/ml) of 450.4 min. For the same molecule, the ET50 (S. aureus [1]; impregnated ORC extract, minocycline 0.00 ng/ml, rifampin 366.45 ng/ml) was 418.1 min, the “Fold reduction in MIC concentration” value (S. aureus [1]) was 0.019 and the ET50 (S. aureus [1]; rifampin-impregnated ORC extract, impregnation fluid 50 μg/ml, 0.015705 % on ORC, 366.45 ng/ml in MIC) was 643 min. It also gave an ET50 (S. aureus [1]; rifampin-impregnated ORC extract, impregnation fluid 100 μg/ml, 0.03141 % on ORC, 732.9 ng/ml in MIC) of 1396 min, an ET50 (S. aureus [1]; rifampin-impregnated ORC extract, impregnation fluid 150 μg/ml, 0.047115 % on ORC, 1099.35 ng/ml in MIC) greater than 2000 min and an ET50 (S. aureus [1]; rifampin-impregnated ORC extract, impregnation fluid 200 μg/ml, 0.06282 % on ORC, 1465.8 ng/ml in MIC) greater than 2000 min. For the same molecule, the “MIC values for S. aureus according to the literature” value (S. aureus [2]) was 4 to 15 ng/mL.
